Measurements: PMC5826148, “Whole-Cell Screen of Fragment Library Identifies Gut Microbiota Metabolite Indole Propionic Acid as Antitubercular” (Antimicrobial Agents and Chemotherapy, 2018)
≈ marks a conversion by molar mass, not a printed value. Like-named read-outs stand apart in the source and are kept apart here.

What was measured:
[1] = Endogenous plasma levels of IPA in naive mice
[2] = test system: Escherichia coli; test: Spectrum of activity: E. coli growth inhibition; format: cell-based; details: LB medium, overnight, read-out: Antibacterial activity (MIC50) E. coli
[3] = test system: M. tuberculosis H37Rv; test: Mouse model of acute M. tuberculosis infection
[4] = Cytotoxicity assay, HepG2 cells (CellTiter 96 AQueous One); details: human, HepG2 cells
[5] = test system: mice; details: 100 mg/kg oral on three consecutive days, monitored 7 days
[6] = test system: M. abscessus; test: Spectrum of activity: M. abscessus growth inhibition; format: cell-based; details: 3 days, read-out: Antibacterial activity (MIC50) M. abscessus
[7] = design: method as in PMID 24563545; details: cited from earlier work
[8] = test system: M. tuberculosis H37Rv; test: Bactericidal activity, CFU enumeration on agar after treatment; format: cell-based, Mycobacterium tuberculosis; details: M. tuberculosis, 1 mM, log CFU/ml reduction from initial inoculum; for log reduction at 1000 µM: Mycobacterium tuberculosis, H37RV, read-out: Bactericidal activity (log reduction) at 1 mM
[9] = test system: Staphylococcus aureus; test: Spectrum of activity: S. aureus growth inhibition; format: cell-based; details: LB medium, overnight, read-out: Antibacterial activity (MIC50) S. aureus
[10] = test system: M. avium; test: Spectrum of activity: M. avium growth inhibition; format: cell-based; details: 4 days, read-out: Antibacterial activity (MIC50) M. avium
[11] = test system: M. smegmatis; test: Spectrum of activity: M. smegmatis growth inhibition; format: cell-based; details: 1 day, read-out: Antibacterial activity (MIC50) M. smegmatis
[12] = test system: M. tuberculosis H37Rv; test: M. tuberculosis growth inhibition dose-response (MIC50), turbidity readout; format: cell-based, Mycobacterium tuberculosis; details: H37Rv, 10 days, read-out: Antibacterial activity (MIC50) M. tuberculosis
[13] = test system: human red blood cells (RBCs); test: Red blood cell lysis assay; details: hemolysis
[14] = Pharmacokinetic study in uninfected CD-1 mice; details: for AUC(0-t) / Cmax: Ave +/- SD, n=3
[15] = test system: M. bovis BCG Pasteur; test: microbe, parasite or virus in culture; format: cell-based; details: for MIC50: Mycobacterium tuberculosis variant bovis BCG, BCG, read-out: Antibacterial activity (MIC50) M. bovis BCG
[16] = test system: M. tuberculosis; test: Growth inhibition in acidic medium (pH 6.2); format: cell-based, Mycobacterium tuberculosis; details: pH 6.2, read-out: Activity (MIC50) in acidic medium (pH 6.2)
[17] = Cytotoxicity assay, THP-1 cells (CellTiter 96 AQueous One); details: human
[18] = test system: HepG2 cells; test: Cytotoxicity assay, HepG2 cells (CellTiter 96 AQueous One); details: read-out: Cytotoxicity HepG2 cells CC50; 24 h
[19] = test system: THP-1 cells; test: Cytotoxicity assay, THP-1 cells (CellTiter 96 AQueous One); details: read-out: Cytotoxicity THP-1 cells CC50; 24 h
[20] = Day 42, IPA 100 mg/kg, INH 25 mg/kg, oral gavage 6 days/week, 4 weeks
[21] = Mycobacteroides abscessus, 72 h
[22] = Mycolicibacterium smegmatis, 24 h
[23] = Mycobacterium tuberculosis, 240 h

For `O=C(O)CCc1c[nH]c2ccccc12` [Fragment F1], the “Endogenous plasma level, Average” value ([1]; time 0.25 h) was 589 ng/mL, the “Endogenous plasma level, Average” value ([1]; time 1 h) was 514 ng/mL and the “Endogenous plasma level, Average” value ([1]; time 3 h) was 455 ng/mL. For the same compound, the “Endogenous plasma level, Average” value ([1]; time 5 h) was 404 ng/mL, the “Endogenous plasma level, Average” value ([1]; time 8 h) was 629 ng/mL and the MIC50 ([2]; Escherichia coli) was greater than 500 µM. For the same compound, the “reduction of bacterial load in the spleen versus untreated mice” value ([3]; 100 mg/kg oral, 6 days/week for 4 weeks) was 7 fold, the “adverse events or abnormal behavior over the course of drug treatment” value ([3]; 100 mg/kg, six consecutive days per week for 4 weeks, infected mice) was “None of the animals showed signs of adverse events or abnormal behavior” and the “Lungs CFU log10, mean difference from drug-free control” value [3, 20] was -0.28 log10 CFU. For the same compound, the “Spleen CFU log10, mean difference from drug-free control” value [3, 20] was -0.82 log10 CFU, the CC50 at 24 h [4] was greater than 1000 µM and the “Acute toxicity: behavior and gross pathology of major organs” value [5] was “None of the mice showed abnormal behavior”. The MIC50 [6, 21] was greater than 500 µM, the “logarithm of partition coefficient between n-octanol and water” value [7] was 2.15 and the log reduction at 1000 µM [8] was 1.76. The MIC50 ([9]; Staphylococcus aureus) was greater than 500 µM, the MIC50 ([10]; Mycobacterium avium, 96 h) was 119 µM (≈ 22.5 µg/mL) and the MIC50 [11, 22] was 477 µM (≈ 90.3 µg/mL). For the same compound, the MIC50 [12, 23] was 68 µM (≈ 12.9 µg/mL), the “RBCs HC50” value [13] was >1,000 μM and the “time plasma levels above the MIC50” value ([14]; 100 mg/kg oral) was “more than 50 % of the dosing interval”. The Vd ([14]; CD-1, mouse, plasma, iv, 5 mg/kg) was 0.25 L/kg, the AUC(0-t) ([14]; CD-1, mouse, plasma, iv, 5 mg/kg, AUC[0-8], Intravenous 5 mg/kg) was 72 ± 3 µg·h/mL and the AUC(0-t) ([14]; CD-1, mouse, plasma, po, 100 mg/kg, AUC[0-8], Oral 100 mg/kg in CMC (suspension)) was 315 ± 88 µg·h/mL. It also gave an AUC(0-t) ([14]; CD-1, mouse, plasma, po, 100 mg/kg, AUC[0-8], Oral 100 mg/kg in PEG (solution)) of 312 ± 59 µg·h/mL, an AUC(0-t) ([14]; CD-1, mouse, plasma, po, 100 mg/kg, AUC[0-24], Oral 100 mg/kg in CMC (suspension)) of 442 ± 271 µg·h/mL and an AUC(0-t) ([14]; CD-1, mouse, plasma, po, 100 mg/kg, AUC[0-24], Oral 100 mg/kg in PEG (solution)) of 471 ± 129 µg·h/mL. The Cmax ([14]; CD-1, mouse, plasma, po, 100 mg/kg, Oral 100 mg/kg in CMC (suspension)) was 67 ± 28 µg/mL, the Cmax ([14]; CD-1, mouse, plasma, po, 100 mg/kg, Oral 100 mg/kg in PEG (solution)) was 118 ± 10 µg/mL and the bioavailability ([14]; CD-1, mouse, plasma, po, 100 mg/kg, F (oral bioavailability), Oral 100 mg/kg in CMC (suspension)) was 30.8%. For the same compound, the bioavailability ([14]; CD-1, mouse, plasma, po, 100 mg/kg, F (oral bioavailability), Oral 100 mg/kg in PEG (solution)) was 32.9%, the bioavailability ([14]; CD-1, mouse, plasma, po, 100 mg/kg, oral bioavailability, 100 mg/kg oral) was 30 to 33% and the MIC50 [15] was 98 µM (≈ 18.5 µg/mL). For the same compound, the MIC50 ([16]; Mycobacterium tuberculosis) was 62 µM (≈ 11.7 µg/mL) and the CC50 at 24 h [17] was greater than 1000 µM.
In the case of `NC(=S)COc1cccc(Cl)c1` [Fragment F13, 2-(3-Chlorophenoxy) ethanethioamide], the MIC50 [2] is reported as greater than 500 µM, the CC50 [18] is reported as 467 µM and the MIC50 [6] is reported as 289 µM (≈ 58.3 µg/mL). For the same compound, the “Bactericidal activity (log reduction) at 1 mM” value [8] was 0.90 log reduction, the MIC50 [9] was greater than 500 µM and the MIC50 [10] was 387 µM (≈ 78 µg/mL). For the same compound, the MIC50 [11] was 409 µM (≈ 82.5 µg/mL), the MIC50 [12] was 211 µM (≈ 42.6 µg/mL) and the “RBCs HC50” value [13] was 904 µM. The “Antibacterial activity (MIC50) M. bovis BCG” value [15] was greater than 500 µM, the MIC50 [16] was 75 µM (≈ 15.1 µg/mL) and the CC50 [19] was 656 µM.
With `CNCc1ccccc1Oc1ccccc1` [Fragment F23, Methyl[(2-phenoxyphenyl)methyl]amine] the MIC50 ([2]; Escherichia coli) was greater than 500 µM, the CC50 at 24 h [4] was 789 µM and the MIC50 [6, 21] was greater than 500 µM. The log reduction at 1000 µM [8] was 1.22, the MIC50 ([9]; Staphylococcus aureus) was greater than 500 µM and the MIC50 ([10]; Mycobacterium avium, 96 h) was greater than 500 µM. The MIC50 [11, 22] was greater than 500 µM, the MIC50 [12, 23] was 305 µM (≈ 65.1 µg/mL) and the “RBCs HC50” value [13] was >1,000 μM. The MIC50 [15] was 347 µM (≈ 74 µg/mL), the MIC50 ([16]; Mycobacterium tuberculosis) was greater than 500 µM and the CC50 at 24 h [17] was 976 µM.
With `Cc1ccc(-c2cc(C(=O)O)c(C)o2)cc1` [Fragment F24, 2-Methyl-5-(4-methylphenyl)-3-furoic acid] the MIC50 ([2]; Escherichia coli) was greater than 500 µM, the CC50 at 24 h [4] was 984 µM and the MIC50 [6, 21] was greater than 500 µM. For the same compound, the log reduction at 1000 µM [8] was 2.02, the MIC50 ([9]; Staphylococcus aureus) was greater than 500 µM and the MIC50 ([10]; Mycobacterium avium, 96 h) was 458 µM (≈ 99 µg/mL). For the same compound, the MIC50 [11, 22] was greater than 500 µM, the MIC50 [12, 23] was 316 µM (≈ 68.3 µg/mL) and the “RBCs HC50” value [13] was >1,000 μM. The MIC50 [15] was 193 µM (≈ 41.7 µg/mL), the MIC50 ([16]; Mycobacterium tuberculosis) was 120 µM (≈ 25.9 µg/mL) and the CC50 at 24 h [17] was 887 µM.
`O=C(O)c1csc2ccc(Cl)cc12` [Fragment F25, 5-Chloro-1-benzothiophene-3-carboxylic acid] showed an MIC50 ([2]; Escherichia coli) greater than 500 µM, a CC50 at 24 h [4] of 765 µM and an MIC50 [6, 21] of 257 µM (≈ 54.7 µg/mL). It also gave a log reduction at 1000 µM [8] of 2.1, an MIC50 ([9]; Staphylococcus aureus) greater than 500 µM and an MIC50 ([10]; Mycobacterium avium, 96 h) of 489 µM (≈ 104 µg/mL). The MIC50 [11, 22] was 98 µM (≈ 20.8 µg/mL), the MIC50 [12, 23] was 319 µM (≈ 67.8 µg/mL) and the “RBCs HC50” value [13] was 945 µM. The MIC50 [15] was 367 µM (≈ 78 µg/mL), the MIC50 ([16]; Mycobacterium tuberculosis) was 94 µM (≈ 20 µg/mL) and the CC50 at 24 h [17] was 876 µM.
